We go through 10 molecules from ChEMBL document CHEMBL1201862, “PubChem BioAssay data set” (2004).

Structures are written as SMILES.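 Values below derive from 48-hour exposures of cells grown in 96-well plates, with endpoints linearly interpolated between the two concentrations bracketing the appropriate inhibition level. The concentration for 50% growth inhibition is given as GI50.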 Activity calls are given as the source filed them. Rule as the data show it: active = GI50 up to about 1.1 µM and inactive = higher.

Test systems include UACC-62; RPMI-8226; NCI-H522; MOLT-4; SF-268; SK-MEL-28; HL-60; UO-31; COLO 205; OVCAR-8; SF-539; IGROV-1; EKVX; NCI/ADR-RES; RXF 393; SN12C; HCT-116; SK-OV-3; M14; HOP-92.
Common to all, as to test: NCI-60 cell line screen, 48 h

As to `Nc1cc(C2CCCc3c2[nH]c2ccccc32)ccc1O` (stereo not given), the GI50 in the test on UACC-62 is 10.8 µM (inactive); in the test with RPMI-8226, 0.271 µM (active); in the test on NCI-H522, 20.1 µM (inactive); in the test with MOLT-4 it was 4.79 µM (inactive); with SF-268, 45.9 µM (inactive); in the test with SK-MEL-28, > 100 µM (inactive). Besides, the GI50 with HL-60 was 14.2 µM (inactive); in the test on UO-31, 10.5 µM (inactive); in the test with COLO 205, 45.4 µM (inactive); in the test on OVCAR-8, 24.3 µM (inactive); in the test on SF-539, > 100 µM (inactive); with IGROV-1, 38.2 µM (inactive). In addition, the GI50 in the test with EKVX was 44 µM (inactive); in the test with NCI/ADR-RES it was 22 µM (inactive); in the test with RXF 393, 55.8 µM (inactive); in the test on SN12C, 65.2 µM (inactive); in the test with HCT-116, 20.3 µM (inactive); with SK-OV-3, > 100 µM (inactive). In addition, the GI50 is 6.19 µM (inactive) in the test on M14 and 56.8 µM (inactive) in the test with HOP-92.

As to `C=C1[C@H](OCC(C)C)[C@@H](O)[C@@H](OC(=O)c2cccnc2)C(C)(C)/C=C/[C@H](C)[C@H](OC(C)=O)[C@@]2(O)C[C@@](C)(OC(C)=O)[C@H](OC(=O)c3ccccc3)[C@@H]2[C@H]1OC(C)=O`, the GI50 was 2.07 µM (inactive) with UACC-62; 0.741 µM (active) in the test on RPMI-8226; 0.944 µM (active) with NCI-H522; 0.138 µM (active) with MOLT-4; > 1.49 µM (inactive) in the test on SF-268; 1.14 µM (inactive) in the test on SK-MEL-28. The GI50 was 0.0695 µM (active) in the test with HL-60; 0.54 µM (active) with UO-31; 0.0713 µM (active) with COLO 205; 1.22 µM (inactive) in the test on OVCAR-8; 0.482 µM (active) in the test with SF-539; 1.36 µM (inactive) with IGROV-1. For the same molecule, the GI50 was 1.04 µM (active) in the test on EKVX; 1.29 µM (inactive) with NCI/ADR-RES; 4.24 µM (inactive) in the test on RXF 393; > 3.1 µM (inactive) in the test with SN12C; 1.59 µM (inactive) in the test on HCT-116; > 3.02 µM (inactive) in the test with SK-OV-3. In addition, the GI50 in the test with M14 is 0.977 µM (active); in the test on HOP-92, 0.723 µM (active).

Regarding `O=[N+]([O-])c1ccc(-c2nn3c(C45CC6CC(CC(C6)C4)C5)nnc3s2)c(Cl)c1`, the GI50 with UACC-62, with RPMI-8226, in the test on NCI-H522, in the test on MOLT-4, with SF-268 and in the test on SK-MEL-28 was > 100 µM (inactive) in each case. Also, the GI50 with HL-60, in the test with UO-31, with COLO 205, in the test on OVCAR-8, in the test on SF-539 and in the test with IGROV-1 was > 100 µM (inactive) each time. For the same molecule, the GI50 with EKVX, with NCI/ADR-RES, in the test with RXF 393, with SN12C, with HCT-116 and in the test on SK-OV-3 was > 100 µM (inactive) in each case. For the same molecule, the GI50 in the test on M14 and in the test with HOP-92 was > 100 µM (inactive) throughout.

In the case of `O=[N+]([O-])c1ccc2sc(/C=N/c3cnccn3)cc2c1`, the GI50 is 17.1 µM (inactive) with UACC-62; 16 µM (inactive) in the test on RPMI-8226; 32.5 µM (inactive) in the test with NCI-H522; 10.7 µM (inactive) in the test on MOLT-4; 27.2 µM (inactive) in the test with SF-268; 28.3 µM (inactive) in the test with SK-MEL-28. Also, the GI50 in the test on HL-60 was 14.2 µM (inactive); in the test with UO-31, 24.1 µM (inactive); in the test on COLO 205, 39.8 µM (inactive); in the test with OVCAR-8, 45.4 µM (inactive); in the test on SF-539, 31.6 µM (inactive); in the test with IGROV-1, 58.3 µM (inactive). The GI50 in the test on EKVX is 39.1 µM (inactive); in the test with NCI/ADR-RES, 70.3 µM (inactive); in the test with RXF 393 it was 0.597 µM (active); in the test on SN12C, 45.6 µM (inactive); in the test with HCT-116, 37 µM (inactive); in the test with SK-OV-3 it was 30.4 µM (inactive). The figures for the GI50 with M14 and with HOP-92 were 37.2 µM (inactive) and 60.1 µM (inactive), respectively.

Regarding `C[C@@H]1CCC2[C@@H](C)[C@@H](OCCO[C@H]3OC4O[C@@]5(C)CCC6[C@H](C)CCC([C@H]3C)[C@@]46OO5)OC3O[C@@]4(C)CCC1[C@]32OO4` (stereo not given in full), the GI50 in the test on UACC-62 is 0.279 µM (active); in the test with RPMI-8226, < 0.01 µM (active); with NCI-H522, 0.0689 µM (active); in the test on MOLT-4, 0.0483 µM (active); with SF-268, 0.233 µM (active); in the test with SK-MEL-28, 2.86 µM (inactive). In addition, the GI50 was 0.0583 µM (active) in the test on HL-60; 0.201 µM (active) in the test on UO-31; 0.0514 µM (active) with COLO 205; 0.0982 µM (active) with OVCAR-8; 0.202 µM (active) in the test on SF-539; 0.0652 µM (active) in the test with IGROV-1. Further, the GI50 was 1.48 µM (inactive) in the test on EKVX; 0.241 µM (active) with NCI/ADR-RES; 0.94 µM (active) in the test with RXF 393; 0.541 µM (active) with SN12C; 0.0251 µM (active) with HCT-116; 0.577 µM (active) in the test on SK-OV-3. Besides, the GI50 with M14 is 0.379 µM (active); in the test on HOP-92 it was 2.64 µM (inactive).

For the molecule `CC(C)=CCCC(C)CCOS(=O)C(F)(F)F` (stereo not given), the GI50 with UACC-62 is 8.81 µM (inactive); in the test with RPMI-8226, 29.4 µM (inactive); with NCI-H522, 1.71 µM (inactive); with MOLT-4, 2.58 µM (inactive); with SF-268 it was 17.7 µM (inactive); in the test on SK-MEL-28, 11 µM (inactive). Moreover, the GI50 with HL-60 is 2.88 µM (inactive); in the test on UO-31 it was 13.1 µM (inactive); in the test on COLO 205, 4.7 µM (inactive); in the test on OVCAR-8, 6.78 µM (inactive); in the test with SF-539, 31.3 µM (inactive); in the test on IGROV-1, 12.8 µM (inactive). The GI50 is 10.4 µM (inactive) with EKVX; 4.16 µM (inactive) in the test with NCI/ADR-RES; 1.89 µM (inactive) in the test with RXF 393; 7.93 µM (inactive) in the test with SN12C; 12.6 µM (inactive) with HCT-116; 22.1 µM (inactive) in the test with SK-OV-3. Besides, the GI50 is 1.35 µM (inactive) with M14 and 18.7 µM (inactive) in the test on HOP-92.

Regarding `COc1ccc(C2=NN(C(=O)c3ccccc3)C(O)(c3cc(F)c(Cl)cc3Cl)C2)cc1OC` (stereo not given), the GI50 in the test on UACC-62 was 45.6 µM (inactive); with RPMI-8226 it was 38 µM (inactive); with NCI-H522 it was 56.1 µM (inactive); in the test with MOLT-4, 8.61 µM (inactive); in the test with SF-268, 55.5 µM (inactive); in the test on SK-MEL-28 it was 49.8 µM (inactive). The GI50 was > 100 µM (inactive) in the test with HL-60; 30.9 µM (inactive) with UO-31; > 100 µM (inactive) in the test with COLO 205; 48.4 µM (inactive) in the test with OVCAR-8; 43.1 µM (inactive) with SF-539; 40.1 µM (inactive) with IGROV-1. Besides, the GI50 was 32.7 µM (inactive) with EKVX; 62.1 µM (inactive) with NCI/ADR-RES; 18.9 µM (inactive) in the test on RXF 393; 94.4 µM (inactive) in the test with SN12C; 50 µM (inactive) in the test with HCT-116; 20.9 µM (inactive) in the test on SK-OV-3. In addition, the GI50 was 73.6 µM (inactive) in the test on M14 and 21.4 µM (inactive) in the test on HOP-92.

For `O=[N+]([O-])c1ccc2sc(/C=N/c3ccc(O)cc3)cc2c1`, the GI50 was 23.1 µM (inactive) with UACC-62; 22.3 µM (inactive) with RPMI-8226; 27.7 µM (inactive) in the test with NCI-H522; 15.8 µM (inactive) with MOLT-4; 29.5 µM (inactive) in the test on SF-268; 36.1 µM (inactive) in the test with SK-MEL-28. In addition, the GI50 in the test on HL-60 was 18.9 µM (inactive); in the test with UO-31 it was 41 µM (inactive); in the test on COLO 205 it was 38 µM (inactive); with OVCAR-8 it was 32.2 µM (inactive); in the test on SF-539, 22 µM (inactive); in the test on IGROV-1 it was 31.4 µM (inactive). Moreover, the GI50 in the test on EKVX is 48.1 µM (inactive); in the test on NCI/ADR-RES, 28.8 µM (inactive); in the test with RXF 393, 21.5 µM (inactive); in the test with SN12C it was 30.1 µM (inactive); in the test with HCT-116 it was 27.9 µM (inactive); in the test on SK-OV-3, 84.7 µM (inactive). Further, the results for the GI50 in the test on M14 and in the test with HOP-92 were 31.3 µM (inactive) and 32.4 µM (inactive), respectively.

With `Cc1ccc(S(=O)(=O)CC2(Br)CCc3ccccc3C2=O)cc1` (stereo not given), the GI50 is 23 µM (inactive) in the test with UACC-62; 38.1 µM (inactive) in the test on RPMI-8226; 15.6 µM (inactive) in the test with NCI-H522; 2.86 µM (inactive) in the test on MOLT-4; 16.6 µM (inactive) in the test on SF-268; 17.2 µM (inactive) with SK-MEL-28. The GI50 with HL-60 is 17.3 µM (inactive); in the test with UO-31 it was 14.8 µM (inactive); in the test with COLO 205, 18.1 µM (inactive); with OVCAR-8 it was 27.4 µM (inactive); with SF-539, 33.7 µM (inactive); with IGROV-1, 17.5 µM (inactive). Also, the GI50 was 43.1 µM (inactive) in the test on EKVX; 48.9 µM (inactive) in the test on NCI/ADR-RES; 18.1 µM (inactive) in the test with RXF 393; 30.6 µM (inactive) in the test with SN12C; 47.1 µM (inactive) with HCT-116; 39.7 µM (inactive) in the test on SK-OV-3. Besides, the GI50 was 45.4 µM (inactive) in the test on M14 and 34.4 µM (inactive) in the test on HOP-92.

Consider `CCc1nc(N)nc(N)c1-c1ccc2c(c1)nnn2CCc1ccccc1`, for which the GI50 in the test with UACC-62 is 7.01 µM (inactive); in the test with RPMI-8226 it was 13.6 µM (inactive); in the test on NCI-H522, 5.98 µM (inactive); in the test on MOLT-4, 8.91 µM (inactive); in the test with SF-268, 10.3 µM (inactive); in the test on SK-MEL-28, 31.4 µM (inactive). Also, the GI50 in the test on HL-60 was 3.02 µM (inactive); in the test on UO-31, 16.3 µM (inactive); with COLO 205, 14.9 µM (inactive); with OVCAR-8, 4.95 µM (inactive); in the test on SF-539, 21.3 µM (inactive); in the test with IGROV-1, 4.72 µM (inactive). In addition, the GI50 with EKVX was 21.8 µM (inactive); with NCI/ADR-RES, 13.7 µM (inactive); in the test with RXF 393, 26.4 µM (inactive); in the test with SN12C it was 22.5 µM (inactive); in the test with HCT-116, 2.36 µM (inactive); with SK-OV-3 it was 45.4 µM (inactive). Further, the GI50 was 4.66 µM (inactive) in the test with M14 and 38.4 µM (inactive) in the test on HOP-92.
